Test system: Crude diglycosidase
Test: Examination of temperature in the conversion into isoflavone aglycons by diglycosidase using soybean materials
Assay type: biochemical, Penicillium multicolor IAM7153
Parameters: Decomposition efficiency of glycitin family in roasted soy flour / Decomposition efficiency of daidzin family in roasted soy flour / Decomposition efficiency of genistin family in soymilk / Decomposition efficiency of daidzin family in soymilk / Decomposition efficiency of glycitin family in defatted soybean / Decomposition efficiency of daidzin family in defatted soybean: concentration or dose not given beside the values
Settings: for maximum isolation of aglycons: reaction at 55° C. for 6 hours
Summary of the method: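 Soybean materials (50 mg) suspended in 20 mM acetate buffer pH 4.0 reacted with crude diglycosidase diluted to 1.88 AU/mL at 80, 65, 55, 45, 37 or 30° C. Reactions stopped with ethanol at 0, 1, 3 and 6 h; isoflavone glycosides and aglycons in supernatant detected by HPLC.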

[1] = 30° C., heat treatment of enzyme no, reaction time 0 h
[2] = 30° C., heat treatment of enzyme no, reaction time 1 h
[3] = 30° C., heat treatment of enzyme no, reaction time 3 h
[4] = 30° C., heat treatment of enzyme no, reaction time 6 h
[5] = 30° C., heat treatment of enzyme yes, reaction time 6 h
[6] = 45° C., heat treatment of enzyme no, reaction time 0 h
[7] = 45° C., heat treatment of enzyme no, reaction time 1 h
[8] = 45° C., heat treatment of enzyme no, reaction time 3 h
[9] = 45° C., heat treatment of enzyme no, reaction time 6 h
[10] = 45° C., heat treatment of enzyme yes, reaction time 6 h
[11] = 45 °C, heat treatment of enzyme: no, 0 h
[12] = 45 °C, heat treatment of enzyme: no, 1 h
[13] = 45 °C, heat treatment of enzyme: no, 3 h
[14] = 45 °C, heat treatment of enzyme: no, 6 h
[15] = 45 °C, heat treatment of enzyme: yes, 6 h
[16] = 55° C., heat treatment of enzyme no, reaction time 0 h
[17] = 55° C., heat treatment of enzyme no, reaction time 1 h
[18] = 55° C., heat treatment of enzyme no, reaction time 3 h
[19] = 55° C., heat treatment of enzyme no, reaction time 6 h
[20] = 55° C., heat treatment of enzyme yes, reaction time 6 h
[21] = 55 °C, heat treatment of enzyme: no, 0 h
[22] = 55 °C, heat treatment of enzyme: no, 1 h
[23] = 55 °C, heat treatment of enzyme: no, 3 h
[24] = 55 °C, heat treatment of enzyme: no, 6 h
[25] = 55 °C, heat treatment of enzyme: yes, 6 h
[26] = 65° C., heat treatment of enzyme no, reaction time 0 h
[27] = 65° C., heat treatment of enzyme no, reaction time 1 h
[28] = 65° C., heat treatment of enzyme no, reaction time 3 h
[29] = 65° C., heat treatment of enzyme no, reaction time 6 h
[30] = 65° C., heat treatment of enzyme yes, reaction time 6 h
[31] = 65 °C, heat treatment of enzyme: no, 0 h
[32] = 65 °C, heat treatment of enzyme: no, 1 h
[33] = 65 °C, heat treatment of enzyme: no, 3 h
[34] = 65 °C, heat treatment of enzyme: no, 6 h
[35] = 65 °C, heat treatment of enzyme: yes, 6 h
[36] = 80° C., heat treatment of enzyme no, reaction time 0 h
[37] = 80° C., heat treatment of enzyme no, reaction time 1 h
[38] = 80° C., heat treatment of enzyme no, reaction time 3 h
[39] = 80° C., heat treatment of enzyme no, reaction time 6 h
[40] = 80° C., heat treatment of enzyme yes, reaction time 6 h
[41] = 80 °C, heat treatment of enzyme: no, 0 h
[42] = 80 °C, heat treatment of enzyme: no, 1 h
[43] = 80 °C, heat treatment of enzyme: no, 3 h
[44] = 80 °C, heat treatment of enzyme: no, 6 h
[45] = 80 °C, heat treatment of enzyme: yes, 6 h

Decomposition efficiency of daidzin family in concentrated soybean protein [1]: 3.0% | Decomposition efficiency of daidzin family in defatted soybean [1]: 14.5% | Decomposition efficiency of daidzin family in concentrated soybean protein [2]: 26.2% | Decomposition efficiency of daidzin family in defatted soybean [2]: 53.4% | Decomposition efficiency of daidzin family in concentrated soybean protein [3]: 42.7% | Decomposition efficiency of daidzin family in defatted soybean [3]: 54.8% | Decomposition efficiency of daidzin family in concentrated soybean protein [4]: 52.5% | Decomposition efficiency of daidzin family in defatted soybean [4]: 54.9% | Decomposition efficiency of daidzin family in concentrated soybean protein [5]: 3.2% | Decomposition efficiency of daidzin family in defatted soybean [5]: 54.6% | Decomposition efficiency of daidzin family in soymilk (30 °C, heat treatment of enzyme: no, 0 h): 9.1% | Decomposition efficiency of daidzin family in soymilk (30 °C, heat treatment of enzyme: no, 1 h): 41.8% | Decomposition efficiency of daidzin family in soymilk (30 °C, heat treatment of enzyme: no, 3 h): 47.2% | Decomposition efficiency of daidzin family in soymilk (30 °C, heat treatment of enzyme: no, 6 h): 53.8% | Decomposition efficiency of daidzin family in soymilk (30 °C, heat treatment of enzyme: yes, 6 h): 9.1% | Decomposition efficiency of daidzin family in roasted soy flour (35 °C, heat treatment of enzyme: no, 0 h): 3.6% | Decomposition efficiency of daidzin family in roasted soy flour (35 °C, heat treatment of enzyme: no, 1 h): 41.4% | Decomposition efficiency of daidzin family in roasted soy flour (35 °C, heat treatment of enzyme: no, 3 h): 54.7% | Decomposition efficiency of daidzin family in roasted soy flour (35 °C, heat treatment of enzyme: no, 6 h): 60.4% | Decomposition efficiency of daidzin family in roasted soy flour (35 °C, heat treatment of enzyme: yes, 6 h): 5.8% | Decomposition efficiency of daidzin family in concentrated soybean protein [6]: 3.1% | Decomposition efficiency of daidzin family in defatted soybean [6]: 16.2% | Decomposition efficiency of daidzin family in concentrated soybean protein [7]: 45.3% | Decomposition efficiency of daidzin family in defatted soybean [7]: 54.5% | Decomposition efficiency of daidzin family in concentrated soybean protein [8]: 48.8% | Decomposition efficiency of daidzin family in defatted soybean [8]: 56.3% | Decomposition efficiency of daidzin family in concentrated soybean protein [9]: 55.5% | Decomposition efficiency of daidzin family in defatted soybean [9]: 58.3% | Decomposition efficiency of daidzin family in concentrated soybean protein [10]: 5.7% | Decomposition efficiency of daidzin family in defatted soybean [10]: 55.7% | Decomposition efficiency of daidzin family in roasted soy flour [11]: 3.7% | Decomposition efficiency of daidzin family in soymilk [11]: 8.9% | Decomposition efficiency of daidzin family in roasted soy flour [12]: 53.5% | Decomposition efficiency of daidzin family in soymilk [12]: 43.0% | Decomposition efficiency of daidzin family in roasted soy flour [13]: 59.4% | Decomposition efficiency of daidzin family in soymilk [13]: 52.0% | Decomposition efficiency of daidzin family in roasted soy flour [14]: 66.2% | Decomposition efficiency of daidzin family in soymilk [14]: 62.8% | Decomposition efficiency of daidzin family in roasted soy flour [15]: 8.1% | Decomposition efficiency of daidzin family in soymilk [15]: 8.2% | Decomposition efficiency of daidzin family in concentrated soybean protein [16]: 3.0% | Decomposition efficiency of daidzin family in defatted soybean [16]: 14.5% | Decomposition efficiency of daidzin family in concentrated soybean protein [17]: 55.0% | Decomposition efficiency of daidzin family in defatted soybean [17]: 55.0% | Decomposition efficiency of daidzin family in concentrated soybean protein [18]: 59.4% | Decomposition efficiency of daidzin family in defatted soybean [18]: 57.3% | Decomposition efficiency of daidzin family in concentrated soybean protein [19]: 62.3% | Decomposition efficiency of daidzin family in defatted soybean [19]: 59.7% | Decomposition efficiency of daidzin family in concentrated soybean protein [20]: 3.2% | Decomposition efficiency of daidzin family in defatted soybean [20]: 55.9% | Decomposition efficiency of daidzin family in roasted soy flour [21]: 3.7% | Decomposition efficiency of daidzin family in soymilk [21]: 8.6% | Decomposition efficiency of daidzin family in roasted soy flour [22]: 57.2% | Decomposition efficiency of daidzin family in soymilk [22]: 49.1% | Decomposition efficiency of daidzin family in roasted soy flour [23]: 67.5% | Decomposition efficiency of daidzin family in soymilk [23]: 58.9% | Decomposition efficiency of daidzin family in roasted soy flour [24]: 73.3% | Decomposition efficiency of daidzin family in soymilk [24]: 68.9% | Decomposition efficiency of daidzin family in roasted soy flour [25]: 5.3% | Decomposition efficiency of daidzin family in soymilk [25]: 8.6% | Decomposition efficiency of daidzin family in concentrated soybean protein [26]: 3.0% | Decomposition efficiency of daidzin family in defatted soybean [26]: 16.2% | Decomposition efficiency of daidzin family in concentrated soybean protein [27]: 53.9% | Decomposition efficiency of daidzin family in defatted soybean [27]: 55.3% | Decomposition efficiency of daidzin family in concentrated soybean protein [28]: 55.4% | Decomposition efficiency of daidzin family in defatted soybean [28]: 58.4% | Decomposition efficiency of daidzin family in concentrated soybean protein [29]: 56.7% | Decomposition efficiency of daidzin family in defatted soybean [29]: 62.7% | Decomposition efficiency of daidzin family in concentrated soybean protein [30]: 3.2% | Decomposition efficiency of daidzin family in defatted soybean [30]: 32.0% | Decomposition efficiency of daidzin family in roasted soy flour [31]: 3.6% | Decomposition efficiency of daidzin family in soymilk [31]: 9.1% | Decomposition efficiency of daidzin family in roasted soy flour [32]: 56.3% | Decomposition efficiency of daidzin family in soymilk [32]: 48.3% | Decomposition efficiency of daidzin family in roasted soy flour [33]: 59.8% | Decomposition efficiency of daidzin family in soymilk [33]: 56.1% | Decomposition efficiency of daidzin family in roasted soy flour [34]: 62.2% | Decomposition efficiency of daidzin family in soymilk [34]: 64.7% | Decomposition efficiency of daidzin family in roasted soy flour [35]: 4.2% | Decomposition efficiency of daidzin family in soymilk [35]: 8.8% | Decomposition efficiency of daidzin family in concentrated soybean protein [36]: 3.1% | Decomposition efficiency of daidzin family in defatted soybean [36]: 16.2% | Decomposition efficiency of daidzin family in concentrated soybean protein [37]: 31.9% | Decomposition efficiency of daidzin family in defatted soybean [37]: 52.4% | Decomposition efficiency of daidzin family in concentrated soybean protein [38]: 32.0% | Decomposition efficiency of daidzin family in defatted soybean [38]: 52.0% | Decomposition efficiency of daidzin family in concentrated soybean protein [39]: 30.7% | Decomposition efficiency of daidzin family in defatted soybean [39]: 51.7% | Decomposition efficiency of daidzin family in concentrated soybean protein [40]: 3.2% | Decomposition efficiency of daidzin family in defatted soybean [40]: 21.7% | Decomposition efficiency of daidzin family in roasted soy flour [41]: 3.7% | Decomposition efficiency of daidzin family in soymilk [41]: 8.9% | Decomposition efficiency of daidzin family in roasted soy flour [42]: 47.7% | Decomposition efficiency of daidzin family in soymilk [42]: 40.3% | Decomposition efficiency of daidzin family in roasted soy flour [43]: 47.7% | Decomposition efficiency of daidzin family in soymilk [43]: 39.7% | Decomposition efficiency of daidzin family in roasted soy flour [44]: 40.8% | Decomposition efficiency of daidzin family in soymilk [44]: 34.1% | Decomposition efficiency of daidzin family in roasted soy flour [45]: 3.8% | Decomposition efficiency of daidzin family in soymilk [45]: 8.8% | maximum isolation of aglycons (concentrated soybean protein): about 62% | maximum isolation of aglycons (defatted soybean): about 60% | maximum isolation of aglycons (soy flour): about 73% | maximum isolation of aglycons (soymilk): about 70%
Structure (SMILES): O=c1c(-c2ccc(O)cc2)coc2cc(O)ccc12 [daidzein]
